Values quoted from earlier work in US12274284B2, “High-energy food supplement based on inverted sugars and ergogenic products for use in physical activity and method for producing same” (priority 2019, dated 2025).
Like-named read-outs stand apart in the source and are kept apart here.

Tests used:
action of insulin = conditions: 5%, 8 weeks, mice
oxidative stress markers = conditions: 300 mg/kg, 15 days, mice
[1] = 300 mg/day
[2] = tested on: muscle carnosine concentrations; conditions: 4-6 g/day
[3] = 1 to 6 g/day for a maximum of six months
[4] = oral administration
[5] = not given; remark: listed apart in the source

In the case of `NCCS(=O)(=O)O` [taurine, 2-aminoethanesulfonic acid], the “action of insulin in liver and skeletal muscle” value (action of insulin) is given as “boosted the action of insulin in the liver and the skeletal muscle” and the “superoxide radicals, lipid peroxidation, carbonylation” value (oxidative stress markers) is given as “reduced the production of superoxide radicals, lipid peroxidation, and carbonylation”.
For `COC1=C(OC)C(=O)C(C/C=C(\C)CC/C=C(\C)CC/C=C(\C)CC/C=C(\C)CC/C=C(\C)CC/C=C(\C)CC/C=C(\C)CC/C=C(\C)CC/C=C(\C)CCC=C(C)C)=C(C)C1=O` [coenzyme Q10], the “feeling of tiredness and physical performance during effort tests” value [1] is given as “reduced the feeling of tiredness and improved physical performance”.
In the case of vitamin E, the “blood plasma concentration of a protein associated with muscle injury” value (1000 UI/day) is given as “reduced the concentration of a protein associated with muscle injury in the blood plasma”.
For `NCCC(=O)O` [β-alanine], the “increase in muscle carnosine concentrations” value ([2]; after 10 weeks) is given as 80% and the “increase in muscle carnosine concentrations” value ([2]; following 4 weeks) is given as ≤ 64%.
For `C[N+](C)(C)C[C@H](O)CC(=O)[O-]` [carnitine, L-carnitine], the “adverse effect or intoxication” value [3] is listed as “no adverse effect or intoxication” and the “plasma concentrations of carnitine” value [3] is listed as “considerably improved the plasma concentrations of carnitine”.
For `Cn1c(=O)c2c(ncn2C)n(C)c1=O` [Caffeine, 1,3,7 trimethylxanthine], the bioavailability [4] is given as “approximately 100%”.
For `O=C1O[C@H]([C@@H](O)CO)C(O)=C1O` [vitamin C], the “tissue concentration of the vitamin” value (400 mg/day) is listed as “increased the tissue concentration of the vitamin”.
In the case of `CC(=O)C(=O)O` [pyruvate, calcium pyruvate], the “patients with a fat loss” value ([5]; 0.05 g/Kg/day after 0.1 g/kg/day for 10 days, 13 to 38 days) is listed as 79.6%, the “patients with a reduction in skinfolds” value ([5]; in vivo) is listed as 89.8% and the “patients with a reduction in the abdomen circumference” value ([5]; in vivo) is listed as 74%.
